Data published in patent US11279733B2, “Peptide antibiotics” (priority 2017, dated 2022).
In brackets after ≈: the same amount, converted by molar mass. Like-named read-outs stand apart in the source and are kept apart here. Starred links: 1 amine or outer side, 2 acyl side, 3 side chain; linkers in the order of their positions; H or OH if unused. Positions of bridges follow the written chain, without caps; N, C: chain ends. Non-standard residues stand in square brackets, D forms with d. Residues, ends and D or L forms follow the SMILES beside them. *: point of attachment. X10 = CCCCCCC[C@@H](O)CC(=O)N[C@H](CCN)C(=O)NN(CCN[*:2])C(=O)[*:1]; Decanoyl(3R-OH) = CCCCCCC[C@@H](O)CC(=O)*; Igl = N[C@H](C(=O)O)C1Cc2ccccc2C1; dOrn = NCCC[C@@H](N)C(=O)O; dDab = NCC[C@@H](N)C(=O)O; dDap = NC[C@@H](N)C(=O)O; Dab = NCC[C@H](N)C(=O)O

Legend:
[1] = tested on: S. aureus ATCC 25923, MSSA; details: ATCC 25923
Procedure, shortened: (§1)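 Mid-log cultures grown in Mueller Hinton broth at 37° C were tested by 2-fold broth microdilution at 5×10^5 CFU/mL final. Compounds were dissolved in water and tested over a final range of 32 to 0.015 μg/mL.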

[2] = tested on: P. aeruginosa GN_105, PmxR; details: GN 105, PmxR
Procedure, shortened: as §1

K. pneumoniae ATCC 13883 = details: ATCC 13883
Procedure, shortened: as §1

A. baumannii GN_093 PmxR = details: GN 093 PmxR
Procedure, shortened: as §1

[3] = tested on: K. pneumoniae ATCC BAA-2146, NDM-1 pos; details: ATCC BAA-2146
Procedure, shortened: as §1

[4] = tested on: K. pneumoniae GN_102 PmxR; details: GN 102 PmxR
Procedure, shortened: as §1

[5] = tested on: P. aeruginosa GN_043, PmxR; details: for MIC P. aeruginosa GN_043, PmxR: polymyxin-resistant
Procedure, shortened: as §1

A. baumannii ATCC 19606 = details: ATCC 19606
Procedure, shortened: as §1

[6] = tested on: K. pneumoniae GN_106, PmxR; details: GN 106, PmxR
Procedure, shortened: as §1

E. coli ATCC 25922 = details: ATCC 25922
Procedure, shortened: as §1

P. aeruginosa ATCC 27853 = details: ATCC 27853
Procedure, shortened: as §1

[7] = tested on: K. pneumoniae ATCC 700603, MDR; details: ATCC 700603
Procedure, shortened: as §1

in vitro = details: human
Procedure, shortened: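 Fluorescence read-out (excitation 560, emission 590) after a 2 h, 37 °C incubation with 5 μM resazurin, following 24 h compound treatment of cells plated at 4000 per well. CC50 values come from fitting dose–response curves of growth inhibition.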

| SMILES | MIC S. aureus ATCC 25923, MSSA [1] [µg/mL] | MIC P. aeruginosa GN_105, PmxR [2] [µg/mL] | MIC K. pneumoniae ATCC 13883 (K. pneumoniae ATCC 13883) [µg/mL] | MIC A. baumannii GN_093 PmxR (A. baumannii GN_093 PmxR) [µg/mL] | MIC K. pneumoniae ATCC BAA-2146, NDM-1 pos [3] [µg/mL] | MIC K. pneumoniae GN_102 PmxR [4] [µg/mL] | MIC P. aeruginosa GN_043, PmxR [5] [µg/mL] | MIC A. baumannii ATCC 19606 (A. baumannii ATCC 19606) [µg/mL] | MIC K. pneumoniae GN_106, PmxR [6] [µg/mL] | MIC E. coli ATCC 25922 (E. coli ATCC 25922) [µg/mL] | MIC P. aeruginosa ATCC 27853 (P. aeruginosa ATCC 27853) [µg/mL] | MIC K. pneumoniae ATCC 700603, MDR [7] [µg/mL] | CC50 at 24 h (in vitro) [µM] | further results |
| --- | --- | --- | --- | --- | --- | --- | --- | --- | --- | --- | --- | --- | --- | --- |
| CCCCCCC[C@@H](O)CC(=O)N[C@H](CN)C(=O)N[C@H]1CCNC(=O)[C@H](Cc2c[nH]c3ccccc23)NC(=O)[C@H](CCCCN)NC(=O)[C@H](CCCNC(=N)N)NC(=O)[C@H](C2Cc3ccccc3C2)NC(=O)[C@@H](Cc2ccccc2)NC(=O)[C@H](CCN)NC1=O [compound 8890, 3(R)OH-nC9CO-D-Dap-cyc[L-Dab-L-Dab-D-Phe-L-indanylgly-L-Arg-L-Lys-L-Trp]] ({Decanoyl(3R-OH)}-[dDap][Dab][Dab][dF][Igl]RKW; lactam 2-C) | 2 (≈ 1.6 µM) | 2 (≈ 1.6 µM) | 2 (≈ 1.6 µM) | 8 (≈ 6.41 µM) | 4 (≈ 3.21 µM) | 4 (≈ 3.21 µM) | 4 (≈ 3.21 µM) | 8 (≈ 6.41 µM) | 4 (≈ 3.21 µM) | 2 (≈ 1.6 µM) | 4 (≈ 3.21 µM) | 2 (≈ 1.6 µM) | 67 |  |
| CCCCCCC[C@@H](O)CC(=O)N[C@H](CCN)C(=O)NN1CCNC(=O)[C@H](CC(C)C)NC(=O)[C@H](CCN)NC(=O)[C@H](CCN)NC(=O)[C@H](CC(C)C)NC(=O)[C@@H](Cc2ccccc2)NC(=O)[C@H](CCN)NC1=O [compound 9417, 3(R)OH-nC9CO-D-Dab-cyc[(aza-Dab)-L-Dab-D-Phe-L-Leu-L-Dab-L-Dab-L-Leu]] ([Dab][dF]L[Dab][Dab]L; linker N-C via X10) | 8 (≈ 7.65 µM) |  | >32 |  | >32 |  |  | >32 |  | >32 | 16 (≈ 15.3 µM) | >32 | > 300 | MIC P. aeruginosa PA9704, PmxR [2]: >32 µg/mL; MIC A. baumannii Cl Ptyela 10073 4512:2, PmxR (A. baumannii GN_093 PmxR): >32 µg/mL; MIC K. pneumoniae Cl Koprana 10065 0661:1 PmxR [4]: >32 µg/mL; MIC, P. aeruginosa FADDI-PA070, PmxR ([5]; strain name as in Table 11): >32 µg/mL; MIC K. pneumoniae Cl 183-16357-20352, PmxR [6]: >32 µg/mL |
| CCCCCCC[C@@H](O)CC(=O)N[C@H](CCN)C(=O)N[C@H]1CCNC(=O)[C@H](CC(C)C)NC(=O)[C@H](CCCCN)NC(=O)[C@H](CCN)NC(=O)[C@H](CC(C)C)NC(=O)[C@@H](Cc2ccccc2)NC(=O)[C@H](CCN)NC1=O [compound 989, 3(R)OH-nC9CO-D-Dab-cyc[L-Dab-L-Dab-D-Phe-L-Leu-L-Dab-L-Lys-L-Leu]] ({Decanoyl(3R-OH)}-[dDab][Dab][Dab][dF]L[Dab]KL; lactam 2-C) | 16 (≈ 14.9 µM) | 2 (≈ 1.86 µM) | 4 (≈ 3.73 µM) | 16 (≈ 14.9 µM) | 2 (≈ 1.86 µM) | 4 (≈ 3.73 µM) | 2 (≈ 1.86 µM) | 8 (≈ 7.46 µM) | 4 (≈ 3.73 µM) | 4 (≈ 3.73 µM) | 2 (≈ 1.86 µM) | 2 (≈ 1.86 µM) | > 300 |  |
| CCCCCCC[C@@H](O)CC(=O)N[C@H](CCCN)C(=O)N[C@H]1CCNC(=O)[C@H](CC(C)C)NC(=O)[C@H](CCN)NC(=O)[C@H](CCN)NC(=O)[C@H](CC(C)C)NC(=O)[C@@H](Cc2ccccc2)NC(=O)[C@H](CCN)NC1=O [compound 6443, 3(R)OH-nC9CO-D-Orn-cyc[L-Dab-L-Dab-D-Phe-L-Leu-L-Dab-L-Dab-L-Leu]] ({Decanoyl(3R-OH)}-[dOrn][Dab][Dab][dF]L[Dab][Dab]L; lactam 2-C) |  | 2 (≈ 1.89 µM) |  | 16 (≈ 15.1 µM) |  | 4 (≈ 3.78 µM) |  |  | 4 (≈ 3.78 µM) |  |  |  | > 300 | MIC, S. aureus ATCC 25923, MSSA [1]: 32 µg/mL (≈ 30.2 µM); MIC, K. pneumoniae ATCC 13883 (K. pneumoniae ATCC 13883): 8 µg/mL (≈ 7.56 µM); MIC, K. pneumoniae ATCC BAA-2146, NDM-1 pos [3]: 8 µg/mL (≈ 7.56 µM); MIC P. aeruginosa GN_043, PmxR ([5]; Table 6): 2 µg/mL (≈ 1.89 µM); MIC, A. baumannii ATCC 19606 (A. baumannii ATCC 19606): 16 µg/mL (≈ 15.1 µM); MIC, E. coli ATCC 25922 (E. coli ATCC 25922): 8 µg/mL (≈ 7.56 µM); MIC, P. aeruginosa ATCC 27853 (P. aeruginosa ATCC 27853): 2 µg/mL (≈ 1.89 µM); MIC, K. pneumoniae ATCC 700603, MDR [7]: 8 µg/mL (≈ 7.56 µM) |
